Test results taken from patent publication EP2386552A1, “Process for the preparation of (R) a-lipoic acid salts, their formulation and use in pharmaceutical compositions, in form of tablets containing them” (priority 2010, dated 2011).

Columns and labels:
Powder apparent density = assay type: physicochemical; conditions: in g/mL
From the text: As solvents, 1-4 carbon atom aliphatic alcohols are used, having linear or branched chain, pure or denaturated by usual denaturants, optionally in a mixture with water or among them or with the mother liquors coming from a previous production cycle that used the same raw materials. The use of ketones, like acetone, as such, (Ex.7, 9) or in a mixture with some of the above mentioned alcohols (Ex.11, 12), produces an amorphous precipitate not suitable to be utilized for the direct compression because of the powder very low density. For industrial purpose a powder having low density (<0,2 g/mL) requires an additional operation (compactation / dry granulation / humid granulation) to produce tablets.

[1] = pH of 1 % solution in water; assay type: physicochemical
[2] = Release test of tablets (Eur. Ph. 2.9.3, blade stirrer, artificial gastric buffer without pepsin); assay type: physicochemical; conditions: tablets containing the salt; compared with tablets containing other known salts
Procedure: The release test was carried out according to Eur. Ph. 2.9.3 with a blade stirrer (100 rpm) in 1000 mL of artificial gastric buffer without pepsin (Eur. […] The title is carried out by drawing 10 mL of medium, filtering on paper then evaluating the acid content by the spectrophotometer at the wavelength of 330 nm versus standard. The tablet hardness (N) is evaluated by a Schleuninger 6D durometer. The compression force was settled to obtain three intervals of tablet hardness: 40-90 N; 90-120Ne> […]. Table 2 : release of (R) α-lipoic acid tablet

[3] = Absorption and bioavailability of tablets; assay type: in vivo; conditions: formulated in tablet; compared with the corresponding tromethamine salt and lipoic acid as a racemate at equivalent doses

Structure (SMILES)	Powder apparent density (Powder apparent density)	pH 1 % in water [1]	dissolution profile [2]	absorption and bioavailability [3]
O=C(O)CCCC[C@@H]1CCSS1 [Ex. 1, Trometamol (R) α-lipoate, reference compound]	0.5-0.7	6.6		
O=C(O)CCCC[C@@H]1CCSS1 [Ex. 6, Cystamine (R) α-lipoate]		6.6	dissolution profile better	
O=C(O)CCCC[C@@H]1CCSS1 [Ex. 7, Diazobicyclo [2,2,2] octane (R) α-lipoate]	0.4-0.6	5.2	dissolution profile better	
O=C(O)CCCC[C@@H]1CCSS1 [Ex. 8, Piperazine (R) α-lipoato (2:1)]	0.5-0.6	5.5	dissolution profile better	better absorption and bioavailability
O=C(O)CCCC[C@@H]1CCSS1 [Ex. 12, Piperazine (R) α-lipoate (1:1)]		7.2		
